Assay results from ChEMBL document CHEMBL3600353, “In Vitro Activity of Epigallocatechin Gallate and Quercetin Alone and in Combination versus Clinical Isolates of Methicillin-Resistant Staphylococcus aureus” (2015).
The source made the active and inactive calls. No cut-off for these calls is given here.

Key:
[1] = tested on: Staphylococcus aureus; experiment: Antibacterial activity against methicillin-resistant Staphylococcus aureus isolate 2 by disk diffusion assay; format: functional
[2] = tested on: Staphylococcus aureus; experiment: Antibacterial activity against methicillin-resistant Staphylococcus aureus isolate 3 by disk diffusion assay; format: functional
[3] = tested on: Staphylococcus aureus; experiment: Antibacterial activity against Staphylococcus aureus ATCC 25923 assessed as reduction of epigallocatechin gallate MIC after 24 hrs by checkerboard assay in presence of quercetin; format: functional; conditions: ATCC 25923, 24 h
[4] = tested on: Staphylococcus aureus; experiment: Antibacterial activity against methicillin-resistant Staphylococcus aureus isolate 4 by disk diffusion assay; format: functional
[5] = tested on: Staphylococcus aureus; experiment: Antibacterial activity against methicillin-resistant Staphylococcus aureus isolate 2 assessed as reduction of epigallocatechin gallate MIC after 24 hrs by checkerboard assay in presence of quercetin; format: functional; conditions: isolate 2, 24 h
[6] = tested on: Staphylococcus aureus; experiment: Antibacterial activity against methicillin-resistant Staphylococcus aureus isolate 8 by disk diffusion assay; format: functional
[7] = tested on: Staphylococcus aureus; experiment: Antibacterial activity against methicillin-resistant Staphylococcus aureus isolate 6 after 24 hrs by checkerboard assay in presence of quercetin; format: functional
[8] = tested on: Staphylococcus aureus; experiment: Antibacterial activity against methicillin-resistant Staphylococcus aureus isolate 1 by disk diffusion assay; format: functional
[9] = tested on: Staphylococcus aureus; experiment: Antibacterial activity against vancomycin-intermediate resistant Staphylococcus aureus Mu50 after 24 hrs by checkerboard assay; format: functional; conditions: Mu50, 24 h
[10] = tested on: Staphylococcus aureus; experiment: Antibacterial activity against methicillin-sensitive Staphylococcus aureus ATCC 25923 at 0.56 mM after 24 hrs by time kill assay in presence of 0.42 mM of quercetin; format: functional, organism-based
[11] = tested on: Staphylococcus aureus; experiment: Antibacterial activity against methicillin-resistant Staphylococcus aureus isolate 8 after 24 hrs by checkerboard assay; format: functional; conditions: isolate 8, 24 h
[12] = tested on: Staphylococcus aureus; experiment: Antibacterial activity against methicillin-resistant Staphylococcus aureus isolate 6 by disk diffusion assay; format: functional
[13] = tested on: Staphylococcus aureus; experiment: Antibacterial activity against methicillin-resistant Staphylococcus aureus NCTC 12493 assessed as log reduction of colony forming unit at 0.28 mM after 4 hrs; format: functional, organism-based
[14] = tested on: Staphylococcus aureus; experiment: Antibacterial activity against methicillin-resistant Staphylococcus aureus isolate 5 assessed as reduction of epigallocatechin gallate MIC after 24 hrs by checkerboard assay in presence of quercetin; format: functional; conditions: isolate 5, 24 h
[15] = tested on: Staphylococcus aureus; experiment: Antibacterial activity against methicillin-resistant Staphylococcus aureus isolate 9 assessed as reduction of epigallocatechin gallate MIC after 24 hrs by checkerboard assay in presence of quercetin; format: functional; conditions: isolate 9, 24 h
[16] = tested on: Staphylococcus aureus; experiment: Antibacterial activity against methicillin-resistant Staphylococcus aureus isolate 2 after 24 hrs by checkerboard assay; format: functional; conditions: isolate 2, 24 h
[17] = tested on: Staphylococcus aureus; experiment: Antibacterial activity against methicillin-resistant Staphylococcus aureus isolate 8 assessed as reduction of epigallocatechin gallate MIC after 24 hrs by checkerboard assay in presence of quercetin; format: functional; conditions: isolate 8, 24 h
[18] = tested on: Staphylococcus aureus; experiment: Antibacterial activity against methicillin-resistant Staphylococcus aureus isolate 4 after 24 hrs by checkerboard assay; format: functional; conditions: isolate 4, 24 h
[19] = tested on: Staphylococcus aureus; experiment: Antibacterial activity against methicillin-resistant Staphylococcus aureus isolate 2 after 24 hrs by checkerboard assay in presence of quercetin; format: functional
[20] = tested on: Staphylococcus aureus; experiment: Antibacterial activity against methicillin-resistant Staphylococcus aureus NCTC 12493 after 24 hrs by checkerboard assay in presence of quercetin; format: functional
[21] = tested on: Staphylococcus aureus; experiment: Antibacterial activity against methicillin-sensitive Staphylococcus aureus ATCC 25923 at 0.28 mM after 24 hrs by time kill assay in presence of 0.2 mM of quercetin; format: functional, organism-based
[22] = tested on: Staphylococcus aureus; experiment: Antibacterial activity against methicillin-resistant Staphylococcus aureus NCTC 12493 assessed as log reduction of colony forming unit at 0.28 mM after 24 hrs; format: functional, organism-based
[23] = tested on: Staphylococcus aureus; experiment: Antibacterial activity against methicillin-resistant Staphylococcus aureus NCTC 12493 after 24 hrs by checkerboard assay; format: functional; conditions: NCTC 12493, 24 h
[24] = tested on: Staphylococcus aureus; experiment: Antibacterial activity against vancomycin-intermediate resistant Staphylococcus aureus Mu50 after 24 hrs by time kill assay; format: functional, organism-based
[25] = tested on: Staphylococcus aureus; experiment: Antibacterial activity against methicillin-resistant Staphylococcus aureus isolate 4 assessed as reduction of epigallocatechin gallate MIC after 24 hrs by checkerboard assay in presence of quercetin; format: functional; conditions: isolate 4, 24 h
[26] = tested on: Staphylococcus aureus; experiment: Antibacterial activity against vancomycin-intermediate resistant Staphylococcus aureus Mu50 assessed as reduction of epigallocatechin gallate MIC after 24 hrs by checkerboard assay in presence of quercetin; format: functional; conditions: Mu50, 24 h
[27] = tested on: Staphylococcus aureus; experiment: Antibacterial activity against methicillin-resistant Staphylococcus aureus isolate 9 by disk diffusion assay; format: functional
[28] = tested on: Staphylococcus aureus; experiment: Antibacterial activity against methicillin-resistant Staphylococcus aureus isolate 6 after 24 hrs by checkerboard assay; format: functional; conditions: isolate 6, 24 h
[29] = tested on: Staphylococcus aureus; experiment: Antibacterial activity against methicillin-sensitive Staphylococcus aureus ATCC 25923 at 0.28 mM after 24 hrs by time kill assay in presence of 0.42 mM of quercetin; format: functional, organism-based
[30] = tested on: Staphylococcus aureus; experiment: Antibacterial activity against methicillin-sensitive Staphylococcus aureus ATCC 25923 at 0.56 mM after 4 hrs by time kill assay; format: functional, organism-based
[31] = tested on: Staphylococcus aureus; experiment: Antibacterial activity against methicillin-sensitive Staphylococcus aureus ATCC 25923 at 0.56 mM after 24 hrs by time kill assay in presence of 0.85 mM of quercetin; format: functional, organism-based
[32] = tested on: Staphylococcus aureus; experiment: Antibacterial activity against methicillin-resistant Staphylococcus aureus isolate 3 after 24 hrs by checkerboard assay; format: functional; conditions: isolate 3, 24 h
[33] = tested on: Staphylococcus aureus; experiment: Antibacterial activity against methicillin-resistant Staphylococcus aureus isolate 9 after 24 hrs by checkerboard assay in presence of quercetin; format: functional
[34] = tested on: Staphylococcus aureus; experiment: Antibacterial activity against methicillin-resistant Staphylococcus aureus NCTC 12493 at 0.28 mM after 4 hrs by time kill assay; format: functional, organism-based
[35] = tested on: Staphylococcus aureus; experiment: Antibacterial activity against methicillin-resistant Staphylococcus aureus NCTC 12493 assessed as reduction of epigallocatechin gallate MIC after 24 hrs by checkerboard assay in presence of quercetin; format: functional; conditions: NCTC 12493, 24 h
[36] = tested on: Staphylococcus aureus; experiment: Antibacterial activity against Staphylococcus aureus ATCC 25923 after 24 hrs by checkerboard assay; format: functional; conditions: ATCC 25923, 24 h
[37] = tested on: Staphylococcus aureus; experiment: Antibacterial activity against methicillin-resistant Staphylococcus aureus isolate 7 assessed as reduction of epigallocatechin gallate MIC after 24 hrs by checkerboard assay in presence of quercetin; format: functional; conditions: isolate 7, 24 h
[38] = tested on: Staphylococcus aureus; experiment: Antibacterial activity against methicillin-resistant Staphylococcus aureus isolate 9 after 24 hrs by checkerboard assay; format: functional; conditions: isolate 9, 24 h
[39] = tested on: Staphylococcus aureus; experiment: Antibacterial activity against methicillin-resistant Staphylococcus aureus isolate 1 after 24 hrs by checkerboard assay in presence of quercetin; format: functional
[40] = tested on: Staphylococcus aureus; experiment: Antibacterial activity against methicillin-resistant Staphylococcus aureus NCTC 12493 at 0.28 mM after 24 hrs by time kill assay; format: functional, organism-based
[41] = tested on: Staphylococcus aureus; experiment: Antibacterial activity against methicillin-resistant Staphylococcus aureus isolate 7 by disk diffusion assay; format: functional
[42] = tested on: Staphylococcus aureus; experiment: Antibacterial activity against methicillin-sensitive Staphylococcus aureus ATCC 25923 at 0.56 mM after 24 hrs by time kill assay; format: functional, organism-based
[43] = tested on: Staphylococcus aureus; experiment: Antibacterial activity against methicillin-resistant Staphylococcus aureus NCTC 12493 assessed as log reduction of colony forming unit at 0.28 mM after 2 hrs; format: functional, organism-based
[44] = tested on: Staphylococcus aureus; experiment: Antibacterial activity against methicillin-resistant Staphylococcus aureus isolate 3 assessed as reduction of epigallocatechin gallate MIC after 24 hrs by checkerboard assay in presence of quercetin; format: functional; conditions: isolate 3, 24 h
[45] = tested on: Staphylococcus aureus; experiment: Antibacterial activity against methicillin-resistant Staphylococcus aureus isolate 3 after 24 hrs by checkerboard assay in presence of quercetin; format: functional
[46] = tested on: Staphylococcus aureus; experiment: Antibacterial activity against methicillin-resistant Staphylococcus aureus isolate 7 after 24 hrs by checkerboard assay; format: functional; conditions: isolate 7, 24 h
[47] = tested on: Staphylococcus aureus; experiment: Antibacterial activity against methicillin-resistant Staphylococcus aureus isolate 5 after 24 hrs by checkerboard assay in presence of quercetin; format: functional
[48] = tested on: Staphylococcus aureus; experiment: Antibacterial activity against vancomycin-intermediate resistant Staphylococcus aureus Mu50 at 0.56 mM after 4 hrs by time kill assay; format: functional, organism-based
[49] = tested on: Staphylococcus aureus; experiment: Antibacterial activity against vancomycin-intermediate resistant Staphylococcus aureus Mu50 assessed as log reduction of colony forming unit at 0.28 mM after 24 hrs; format: functional, organism-based
[50] = tested on: Staphylococcus aureus; experiment: Antibacterial activity against methicillin-resistant Staphylococcus aureus isolate 1 assessed as reduction of epigallocatechin gallate MIC after 24 hrs by checkerboard assay in presence of quercetin; format: functional; conditions: isolate 1, 24 h
[51] = tested on: Staphylococcus aureus; experiment: Antibacterial activity against Staphylococcus aureus ATCC 25923 after 24 hrs by checkerboard assay in presence of quercetin; format: functional
[52] = tested on: Staphylococcus aureus; experiment: Antibacterial activity against methicillin-resistant Staphylococcus aureus isolate 6 assessed as reduction of epigallocatechin gallate MIC after 24 hrs by checkerboard assay in presence of quercetin; format: functional; conditions: isolate 6, 24 h
[53] = tested on: Staphylococcus aureus; experiment: Antibacterial activity against methicillin-resistant Staphylococcus aureus isolate 1 after 24 hrs by checkerboard assay; format: functional; conditions: isolate 1, 24 h
[54] = tested on: Staphylococcus aureus; experiment: Antibacterial activity against methicillin-resistant Staphylococcus aureus isolate 4 after 24 hrs by checkerboard assay in presence of quercetin; format: functional
[55] = tested on: Staphylococcus aureus; experiment: Antibacterial activity against methicillin-resistant Staphylococcus aureus NCTC 12493 after 24 hrs by time kill assay; format: functional, organism-based
[56] = tested on: Staphylococcus aureus; experiment: Antibacterial activity against methicillin-sensitive Staphylococcus aureus ATCC 25923 after 24 hrs by time kill assay; format: functional, organism-based
[57] = tested on: Staphylococcus aureus; experiment: Antibacterial activity against methicillin-resistant Staphylococcus aureus isolate 5 by disk diffusion assay; format: functional
[58] = tested on: Staphylococcus aureus; experiment: Antibacterial activity against vancomycin-intermediate resistant Staphylococcus aureus Mu50 at 0.56 mM after 24 hrs by time kill assay; format: functional, organism-based
[59] = tested on: Staphylococcus aureus; experiment: Antibacterial activity against methicillin-resistant Staphylococcus aureus isolate 5 after 24 hrs by checkerboard assay; format: functional; conditions: isolate 5, 24 h
[60] = tested on: Staphylococcus aureus; experiment: Antibacterial activity against methicillin-resistant Staphylococcus aureus isolate 7 after 24 hrs by checkerboard assay in presence of quercetin; format: functional
[61] = tested on: Staphylococcus aureus; experiment: Antibacterial activity against methicillin-resistant Staphylococcus aureus isolate 8 after 24 hrs by checkerboard assay in presence of quercetin; format: functional
[62] = tested on: Staphylococcus aureus; experiment: Antibacterial activity against vancomycin-intermediate resistant Staphylococcus aureus Mu50 after 24 hrs by checkerboard assay in presence of quercetin; format: functional

O=C(O[C@@H]1Cc2c(O)cc(O)cc2O[C@@H]1c1cc(O)c(O)c(O)c1)c1cc(O)c(O)c(O)c1 [EPIGALOCATECHIN GALLATE]
inhibition zone (IZ) [1]: >=19 mm | inhibition zone (IZ) [2]: >=19 mm | MIC [3]: 20 µM | inhibition zone (IZ) [4]: >=19 mm | MIC [5]: 40 µM | inhibition zone (IZ) [6]: >=19 mm | fractional inhibitory concentration index (FICI) [7]: 0.31 | inhibition zone (IZ) [8]: 8 mm | MIC [9]: 280 µM | Activity [10]: Active | MIC [11]: 280 µM | inhibition zone (IZ) [12]: >=19 mm | Activity [13]: Active | MIC [14]: 70 µM | MIC [15]: 70 µM | MIC [16]: 280 µM | MIC [17]: 70 µM | MIC [18]: 280 µM | fractional inhibitory concentration index (FICI) [19]: 0.2 | fractional inhibitory concentration index (FICI) [20]: 0.06 | Activity [21]: Active | Activity [22]: Active | MIC [23]: 140 µM | Activity [24]: Active | MIC [25]: 70 µM | MIC [26]: 20 µM | inhibition zone (IZ) [27]: >=19 mm | MIC [28]: 280 µM | Activity [29]: Active | Activity [30]: Active | Activity [31]: Active | MIC [32]: 280 µM | fractional inhibitory concentration index (FICI) [33]: 0.28 | Activity [34]: Active | MIC [35]: 4 µM | MIC [36]: 560 µM | MIC [37]: 70 µM | MIC [38]: 280 µM | fractional inhibitory concentration index (FICI) [39]: 0.31 | Activity [40]: Active | inhibition zone (IZ) [41]: >=19 mm | Activity [42]: Active | Activity [43]: Active | MIC [44]: 70 µM | fractional inhibitory concentration index (FICI) [45]: 0.31 | MIC [46]: 280 µM | fractional inhibitory concentration index (FICI) [47]: 0.28 | Activity [48]: Active | Activity [49]: Active | MIC [50]: 70 µM | fractional inhibitory concentration index (FICI) [51]: 0.07 | MIC [52]: 70 µM | MIC [53]: 280 µM | fractional inhibitory concentration index (FICI) [54]: 0.28 | Activity [55]: Active | Activity [56]: Active | inhibition zone (IZ) [57]: >=19 mm | Activity [58]: Active | MIC [59]: 280 µM | fractional inhibitory concentration index (FICI) [60]: 0.31 | fractional inhibitory concentration index (FICI) [61]: 0.31 | fractional inhibitory concentration index (FICI) [62]: 0.09
